According to patent US20160166676A1 (priority 2013, published 2016):

Key:
CTLL-2 cells = format: cell-based
[1] = tested on: BMDCs infected with Influenza A virus; format: cell-based

| Sequence | effect of mixing the monomer with the dimeric peptide on the suppressive activity of the dimer (CTLL-2 cells) | proliferation of CTLL-2 cells (CTLL-2 cells) | interferon response to influenza infection in vitro [1] |
| --- | --- | --- | --- |
| GLFGAIAGFIENGWEGCGGEKEKEK [IN F#2 monomer] | completely removes the suppressive activity of the dimers | has no effect | – |
| GLFGAIAGFIENGWEGGGGEKEKEK [INF F#2 C17G] | – | – | enhances the interferon response |
| DRGWGNGCGLFGKG [FLV IS mono/1] | – | has no effect | – |
